The nature of data set [1]: Solubility of the exemplary drugs in water at 25° C. It is filed as physicochemical. The method, then:
Solubility of the exemplary drugs in water at 25° C. is as follows: […]

Data set [2] is described as follows: Drug release from the erodible matrix, USP dissolution test (Basket or Paddle Method). It is filed as physicochemical. The note with it: in the given dissolution medium; FIGS. 2-7 and 9-15; FIG. 8 (chlorpheniramine maleate composition with the polymer, water, 37° C., Basket Method, 100 rpm).
Description: The evaluation of drug release from the erodible matrix was performed using the USP dissolution test procedure with either the Basket or Paddle Method at the speed as specified. […] Briefly, in both methods, one tablet is placed in the appropriate apparatus described below containing the specified amount of dissolution medium and the stirring element is started. The amount of drug in solution is determined by the UV spectrophotometric method as is known in the art. The assembly used in the Basket Method consists of the following: a covered vessel made of glass with nominal capacity 1000 mL; a motor; a metallic drive shaft; and a cylindrical basket. The vessel containing 900 mL of the specified dissolution medium (i.e., water, 1% nonionic surfactant Emulphor ON-870 in phosphate buffer, pH 7.5 or 3% sodium lauryl sulfate, pH 9.0) is partially immersed in a suitable water bath and equilibrated at 37°±0.5° C. A fitted cover may be used to retard evaporation. The shaft is positioned so that its axis is not more than 2 mm at any point from the vertical axis of the vessel and rotates smoothly and without significant wobble. A speed-regulating device is used that allows the shaft rotation speed to be selected and maintained at the specified rate. The recommended basket speed is 100 rpm. […] The drug analysis was determined by UV spectrophotometry.
Setting [3] is: in water at 25° C., read-out: Solubility.

Values after ≈ are worked out from the molar mass of the structure shown. Structures can show the parent of a compound that is named as a salt. Where two headings read alike, the source gives them in different places. A value given as a limit tells only on which side of the number the result lay.

This is an account of results in patent US5393765A, “Pharmaceutical compositions with constant erosion volume for zero order controlled release” (Hoffmann-La Roche Inc., priority 1993, dated 1995).

For the compound `COc1ccc([C@@H]2Sc3c(ccc4ccccc34)N(CCN(C)C)C(=O)[C@@H]2OC(C)=O)cc1` (single isomer, unassigned) [(+)-cis-3-(Acetyloxy)-2,3-dihydro-2-(4-methoxyphenyl)-5-[2-(dimethylamino)ethyl]naphtho[1,2-b]-1,4-thiazepin-4(5H)-one], in data set [1] (setting [3]), the solubility (commonly how much of the substance goes into solution per volume) turned out to be 80000 µg/mL (≈ 172000 µM).

On to `O=C(CCCCCCCCc1cccnc1)N1CCC(C=C(c2ccccc2)c2ccccc2)CC1` [4-(2,2-Diphenylethenyl)-1-[1-oxo-9-(3-pyridinyl)nonyl]piperidine], for which, in data set [1] (setting [3]), the solubility was determined as 0.182 µg/mL (≈ 0.379 µM).

For `Cc1nnc2n1-c1sc(C#CCn3c(=O)c4ccccc4c4ccccc43)cc1C(c1ccccc1Cl)=NC2` [5-[3-[4-(2-Chlorophenyl)-9-methyl-6H-thieno[3,2-f][1,2,4]triazolo[4,3-a][1,4]diazepin-2-yl]-2-propynyl]phenanthrydin-6(5H)-one], the solubility in data set [1] (water) came to 0.01 µg/mL (≈ 0.0183 µM).

Turning to `CNC1=Nc2ccc(Cl)cc2C(c2ccc[nH]2)=NC1` [7-Chloro-N-methyl-5-(1H-pyrrol-2-yl)-3H-1,4-benzodiazepin-2-amine], in data set [1] (setting [3]), the solubility is 1.5 µg/mL (≈ 5.5 µM).

Consider `CCC(CC)(CC(=O)Nc1cccc(/C=C/c2nc(C3CCC3)cs2)c1)C(=O)O` [(E)-4-[[3-[2-(4-Cyclobutyl-2-thiazolyl)ethenyl]phenyl]amino]-2,2-diethyl-4-oxobutanoic acid], for which the solubility in data set [1] (setting [3]) was < 2 µg/mL.

Turning to `CN(C)CCC(c1ccc(Cl)cc1)c1ccccn1` (stereo not drawn) [chlorpheniramine maleate], the “Release profile (zero order)” value in data set [2] is “does not produce a zero-order release profile”.
